In publication PMC6704710, “Preclinical evaluation of 3D185, a novel potent inhibitor of FGFR1/2/3 and CSF-1R, in FGFR-dependent and macrophage-dominant cancer models” (Journal of Experimental & Clinical Cancer Research : CR, 2019):

Legend:
Test in all cases: Eurofins kinase panel
Format in all cases: biochemical
Conditions in all cases: read-out: Inhibition rate (%)
CDK12/cyclinK(h) = target: T1, CDK12/cyclinK(h) (Homo sapiens, UniProt Q9NYV4)
T1 construct: purchased Eurofins (KinaseProfiler)

CLK3(h) = target: T2, CLK3(h) (Homo sapiens, UniProt P49761)
T2 construct: purchased Eurofins (KinaseProfiler)

DRAK1(h) = target: T3, DRAK1(h) (Homo sapiens, UniProt Q9UEE5)
T3 construct: purchased Eurofins (KinaseProfiler)
T3 sequence (Q9UEE5 1-414): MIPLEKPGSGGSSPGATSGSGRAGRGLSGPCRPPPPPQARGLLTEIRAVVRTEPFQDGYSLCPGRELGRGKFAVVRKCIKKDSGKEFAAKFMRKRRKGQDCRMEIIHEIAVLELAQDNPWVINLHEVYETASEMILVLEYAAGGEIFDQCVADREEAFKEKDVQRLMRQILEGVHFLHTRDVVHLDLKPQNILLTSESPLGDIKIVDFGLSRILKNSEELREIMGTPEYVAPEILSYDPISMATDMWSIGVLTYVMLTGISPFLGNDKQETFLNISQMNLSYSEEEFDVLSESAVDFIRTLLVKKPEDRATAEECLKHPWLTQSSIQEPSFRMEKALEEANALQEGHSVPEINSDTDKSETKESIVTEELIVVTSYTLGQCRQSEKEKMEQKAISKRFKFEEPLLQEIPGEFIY

Lyn(h) = target: T4, Lyn(h) (Homo sapiens, UniProt P07948)
T4 construct: purchased Eurofins (KinaseProfiler)

Mnk2(h) = target: T5, Mnk2(h) (Homo sapiens, UniProt Q9HBH9)
T5 construct: purchased Eurofins (KinaseProfiler)

MST4(h) = target: T6, MST4(h) (Homo sapiens, UniProt Q9P289)
T6 construct: purchased Eurofins (KinaseProfiler)
T6 sequence (Q9P289 whole entry): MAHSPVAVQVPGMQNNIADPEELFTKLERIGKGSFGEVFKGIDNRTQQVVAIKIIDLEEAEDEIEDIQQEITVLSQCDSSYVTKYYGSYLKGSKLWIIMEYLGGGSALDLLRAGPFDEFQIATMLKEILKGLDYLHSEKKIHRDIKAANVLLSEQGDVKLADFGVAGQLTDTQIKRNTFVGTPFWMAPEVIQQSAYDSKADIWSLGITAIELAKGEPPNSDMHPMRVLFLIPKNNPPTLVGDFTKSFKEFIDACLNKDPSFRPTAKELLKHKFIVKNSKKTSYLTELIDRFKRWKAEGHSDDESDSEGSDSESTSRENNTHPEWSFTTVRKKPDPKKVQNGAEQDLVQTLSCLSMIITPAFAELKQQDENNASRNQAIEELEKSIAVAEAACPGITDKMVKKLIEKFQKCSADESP

T4 sequence (P07948 whole entry): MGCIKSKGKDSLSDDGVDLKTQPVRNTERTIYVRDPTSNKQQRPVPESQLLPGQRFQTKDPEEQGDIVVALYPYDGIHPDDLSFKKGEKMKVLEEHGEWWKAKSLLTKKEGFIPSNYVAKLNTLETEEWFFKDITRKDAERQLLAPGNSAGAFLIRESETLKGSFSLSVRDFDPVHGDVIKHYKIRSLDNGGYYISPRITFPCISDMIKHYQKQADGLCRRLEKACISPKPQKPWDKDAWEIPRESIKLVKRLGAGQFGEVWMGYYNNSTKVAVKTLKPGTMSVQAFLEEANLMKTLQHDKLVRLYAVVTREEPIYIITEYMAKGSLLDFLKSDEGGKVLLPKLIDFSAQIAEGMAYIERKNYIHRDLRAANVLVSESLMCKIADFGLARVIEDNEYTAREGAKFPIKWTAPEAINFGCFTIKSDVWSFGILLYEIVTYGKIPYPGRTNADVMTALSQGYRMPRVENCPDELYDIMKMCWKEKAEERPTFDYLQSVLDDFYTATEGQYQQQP
T2 sequence (P49761 whole entry): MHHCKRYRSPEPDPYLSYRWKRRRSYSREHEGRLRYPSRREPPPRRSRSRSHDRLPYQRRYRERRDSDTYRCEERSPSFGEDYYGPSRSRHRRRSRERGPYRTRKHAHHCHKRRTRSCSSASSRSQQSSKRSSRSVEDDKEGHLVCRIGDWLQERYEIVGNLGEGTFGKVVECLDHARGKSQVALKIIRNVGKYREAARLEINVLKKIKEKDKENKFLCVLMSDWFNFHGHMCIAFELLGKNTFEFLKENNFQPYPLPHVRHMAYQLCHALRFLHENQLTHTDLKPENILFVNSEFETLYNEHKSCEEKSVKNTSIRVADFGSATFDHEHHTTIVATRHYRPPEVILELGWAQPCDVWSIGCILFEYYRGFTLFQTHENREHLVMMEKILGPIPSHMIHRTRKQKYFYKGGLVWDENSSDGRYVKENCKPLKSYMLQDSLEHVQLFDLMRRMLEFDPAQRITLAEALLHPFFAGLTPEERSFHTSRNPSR
T1 sequence (Q9NYV4 whole entry): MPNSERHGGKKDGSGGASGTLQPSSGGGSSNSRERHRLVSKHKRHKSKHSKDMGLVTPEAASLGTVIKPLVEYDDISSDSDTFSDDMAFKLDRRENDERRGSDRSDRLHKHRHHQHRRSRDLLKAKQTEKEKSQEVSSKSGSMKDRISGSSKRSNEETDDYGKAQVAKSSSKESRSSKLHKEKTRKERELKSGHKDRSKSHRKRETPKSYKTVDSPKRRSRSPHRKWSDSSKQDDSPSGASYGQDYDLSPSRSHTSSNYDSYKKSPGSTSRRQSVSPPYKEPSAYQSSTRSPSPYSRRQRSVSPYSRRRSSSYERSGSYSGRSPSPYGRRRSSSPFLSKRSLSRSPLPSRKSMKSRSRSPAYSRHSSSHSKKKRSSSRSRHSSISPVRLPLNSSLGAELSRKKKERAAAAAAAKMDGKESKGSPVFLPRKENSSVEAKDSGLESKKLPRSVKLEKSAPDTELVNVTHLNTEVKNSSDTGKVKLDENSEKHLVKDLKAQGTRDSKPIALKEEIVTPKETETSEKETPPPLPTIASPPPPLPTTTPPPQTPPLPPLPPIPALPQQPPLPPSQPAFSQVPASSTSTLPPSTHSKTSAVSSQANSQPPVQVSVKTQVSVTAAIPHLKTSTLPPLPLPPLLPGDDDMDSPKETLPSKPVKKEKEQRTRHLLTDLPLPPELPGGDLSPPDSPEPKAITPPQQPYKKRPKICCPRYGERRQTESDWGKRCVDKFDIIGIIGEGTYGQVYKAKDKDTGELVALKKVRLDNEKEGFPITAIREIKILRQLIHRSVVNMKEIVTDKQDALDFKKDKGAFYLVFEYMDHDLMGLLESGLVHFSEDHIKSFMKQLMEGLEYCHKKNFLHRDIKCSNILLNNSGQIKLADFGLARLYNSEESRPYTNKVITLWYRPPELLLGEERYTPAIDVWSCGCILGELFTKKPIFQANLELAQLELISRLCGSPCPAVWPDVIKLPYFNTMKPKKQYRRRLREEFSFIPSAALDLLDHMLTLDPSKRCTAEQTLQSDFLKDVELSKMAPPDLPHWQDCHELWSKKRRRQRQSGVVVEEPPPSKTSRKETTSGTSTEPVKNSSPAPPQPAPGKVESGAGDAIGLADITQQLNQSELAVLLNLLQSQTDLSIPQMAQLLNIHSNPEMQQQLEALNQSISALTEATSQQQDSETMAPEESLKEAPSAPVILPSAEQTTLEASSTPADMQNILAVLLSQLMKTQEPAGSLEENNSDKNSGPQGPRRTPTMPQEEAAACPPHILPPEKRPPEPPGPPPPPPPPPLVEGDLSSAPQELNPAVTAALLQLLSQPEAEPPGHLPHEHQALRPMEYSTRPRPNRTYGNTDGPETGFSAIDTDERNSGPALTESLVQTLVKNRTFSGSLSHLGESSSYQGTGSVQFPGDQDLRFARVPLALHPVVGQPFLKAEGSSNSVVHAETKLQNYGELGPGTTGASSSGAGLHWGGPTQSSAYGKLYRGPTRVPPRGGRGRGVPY
T1 sequence (O75909 whole entry partner): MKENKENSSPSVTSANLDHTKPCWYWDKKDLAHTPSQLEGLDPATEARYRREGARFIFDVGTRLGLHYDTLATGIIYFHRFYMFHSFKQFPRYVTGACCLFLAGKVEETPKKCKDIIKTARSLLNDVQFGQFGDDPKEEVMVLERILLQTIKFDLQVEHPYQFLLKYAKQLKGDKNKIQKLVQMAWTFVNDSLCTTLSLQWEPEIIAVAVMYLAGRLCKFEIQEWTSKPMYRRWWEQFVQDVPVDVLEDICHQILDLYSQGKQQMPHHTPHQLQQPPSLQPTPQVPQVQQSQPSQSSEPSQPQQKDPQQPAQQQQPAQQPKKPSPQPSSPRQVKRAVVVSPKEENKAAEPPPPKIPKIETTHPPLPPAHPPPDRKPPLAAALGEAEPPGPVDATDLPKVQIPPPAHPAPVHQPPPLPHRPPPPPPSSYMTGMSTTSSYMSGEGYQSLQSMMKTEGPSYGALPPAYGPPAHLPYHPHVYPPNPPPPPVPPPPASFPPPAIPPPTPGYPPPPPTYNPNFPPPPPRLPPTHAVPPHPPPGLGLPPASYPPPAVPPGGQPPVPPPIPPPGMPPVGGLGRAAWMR
T5 sequence (Q9HBH9 whole entry): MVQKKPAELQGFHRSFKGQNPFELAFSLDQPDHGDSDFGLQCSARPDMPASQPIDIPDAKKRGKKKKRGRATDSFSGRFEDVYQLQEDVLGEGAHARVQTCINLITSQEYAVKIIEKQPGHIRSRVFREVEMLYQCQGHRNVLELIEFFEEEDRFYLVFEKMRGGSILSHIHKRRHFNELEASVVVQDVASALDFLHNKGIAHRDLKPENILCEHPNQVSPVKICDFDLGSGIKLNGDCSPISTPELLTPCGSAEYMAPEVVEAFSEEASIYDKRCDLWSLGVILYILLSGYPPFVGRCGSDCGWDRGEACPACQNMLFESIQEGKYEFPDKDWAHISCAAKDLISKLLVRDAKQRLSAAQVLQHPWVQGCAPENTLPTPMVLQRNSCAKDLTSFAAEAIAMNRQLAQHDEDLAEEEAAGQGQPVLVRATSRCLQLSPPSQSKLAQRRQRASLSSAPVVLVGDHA

`COc1cc(OC)c(Cl)c(-c2ccc3c(NC(=O)c4ccc(N5CCNC(C)(C)C5)cc4)n[nH]c3n2)c1Cl` [3D185] gave an inhibition at 0.01 µM (CDK12/cyclinK(h); 10 nM) of -6%, an inhibition at 0.1 µM (CDK12/cyclinK(h); 100 nM) of 4% and an inhibition at 1 µM (CDK12/cyclinK(h); 1000 nM) of 7%. It also gave an inhibition at 0.01 µM (CLK3(h); 10 nM) of 2%, an inhibition at 0.1 µM (CLK3(h); 100 nM) of 9% and an inhibition at 1 µM (CLK3(h); 1000 nM) of 16%. It also gave an inhibition at 0.01 µM (DRAK1(h); 10 nM) of -4%, an inhibition at 0.1 µM (DRAK1(h); 100 nM) of 7% and an inhibition at 1 µM (DRAK1(h); 1000 nM) of 14%. For the same molecule, the inhibition at 0.01 µM (Lyn(h); 10 nM) was 8%, the inhibition at 0.1 µM (Lyn(h); 100 nM) was 81% and the inhibition at 1 µM (Lyn(h); 1000 nM) was 98%. It also gave an inhibition at 0.01 µM (Mnk2(h); 10 nM) of -2%, an inhibition at 0.1 µM (Mnk2(h); 100 nM) of -10% and an inhibition at 1 µM (Mnk2(h); 1000 nM) of -9%. The inhibition at 0.01 µM (MST4(h); 10 nM) was 6%, the inhibition at 0.1 µM (MST4(h); 100 nM) was 27% and the inhibition at 1 µM (MST4(h); 1000 nM) was 70%.
